Experimental findings from patent US20210338684A1, “DIAGNOSTIC AND THERAPEUTIC METHODS FOR CANCER” (Genentech, Inc., priority 2016, published 2021) are described below.

For assay [1], the system named is ARID1A-mutant cancer cell lines. Briefly: Clonogenic assay (colony formation). The class given is cell-based, human. As to the method: (§1) 1,800-5,000 cells were plated in each 6-well plate, according to the doubling time. 24 hours after plating, the medium was removed and replaced with medium containing EPZ-6438 at different concentrations. Fresh medium with EPZ-6438 was replaced every 3 to 4 days until control cells reached confluence to stop culture. For studies evaluating the effect of EZH2 knockout, cells were plated 7 days following puromycin selection. The medium was removed, and cells were washed with PBS and stained with 0.5% crystal violet for 20 minutes at room temperature. Dye was removed, cell monolayers were washed with water, and the plate was washed and photographed.

Assay [2] deals with SMARCB1-mutant malignant rhabdoid tumor lines. Nature of the assay: Clonogenic assay (colony formation). The class given is cell-based, human. The conditions noted are these: two SMARCB1-mutant malignant rhabdoid tumor lines. As to the method:
as §1

Assay [3] deals with SWI/SNF wild-type models. Nature of the assay: Clonogenic assay (colony formation). The conditions noted are these: panel (n=8) of cell lines wildtype for SWI/SNF complex genes. The class given is cell-based, human. As to the method: as §1
Assay [4] has as its system SMARCA4-mutant cell lines. Nature of the assay: Cell morphology after prolonged treatment. The class given is cell-based, human. The conditions noted are these: EPZ-6438-sensitive models, 21 days of treatment, 5 μM.
Assay [5] deals with SMARCA4-mutant cell lines. Briefly: Caspase 3/7 apoptosis assay. The class given is cell-based, human. The conditions noted are these: several other models, prolonged exposure. As to the method:
(§2) Apoptosis was monitored through (a) live cell imaging analysis using the Incucyte Caspase-3/7 Apoptosis Assay (Essen Biosciences, Cat. No. 4440) or through a static time point assessment using the Caspase-Glo 3/7 Assay (Promega, G8090). For Incucyte-based assays (FIG. 4B), 300-600 cells (based on doubling time) were plated in 96-well plates, and at 24 hours, media was replaced with EPZ-6438-containing media at the indicated concentrations and Caspase 3/7 reagent (Essen Bioscience). Fresh media containing EPZ-6438 and Caspase 3/7 reagent was replaced every 3 to 4 days. Phase contrast and fluorescent images were collected every 3 hours, and the number of fluorescent objects were counted and analyzed according to the Incucyte protocol. Data are presented as Caspase 3/7 fluorescent counts normalized to DMSO control at the indicated time points. For determination of apoptosis by Caspase-Glo (FIG. 18C, 19G), TO[…] cells were plated at 500 cells per well in a 96 well plate and treated with the indicated concentrations of EPZ-6438 for 6 days. Caspase 3/7 activity was measured according to the manufacturer's instructions, and results were normalized to signal in DMSO control wells, when indicated. To evaluate senescence induction, cells were stained for β-galactosidase activity using the Senescence Cells Histochemical Staining Kit (Sigma), according to the manufacturers instructions.

For assay [6], the system named is TOV-112D cells. Briefly: Caspase 3/7 apoptosis assay. In kind it is cell-based, human. As to the method: as §2
The target of assay [7] is SMARCA4-mutant EPZ-6438-sensitive models. Briefly: Senescence β-galactosidase staining. The class given is cell-based, human. As to the method: as §2
The subject of assay [8] is NCI-H522 cells. Briefly: Edu incorporation (DNA synthesis). The following applies: 8 weeks of treatment, relative to resistant NCI-H1568. In kind it is cell-based, human.
The test system of assay [9] is NCI-H522 xenografts. Nature of the assay: Xenograft study, tumor growth. The conditions noted are these: oral. The class given is in vivo, mouse. Here is the method: (§3) TOV-21G and NCI-H522 cells (American Type Culture Collection, Manassas, Va.) were cultured in vitro and harvested in HBSS:Matrigel (BD Biosciences; Franklin Lakes, N.J.) (1:1, v:v) for subcutaneous inoculation into female mice. TOV-21G cells were inoculated into Fox Chase SCIO® Beige mice (Charles River Laboratories, San Diego, Calif.). NCI-H522 cells were inoculated into BALB/c Nude mice (Vital River Laboratories, Beijing, China). Mice bearing established tumors were separated into groups of equally sized tumors (n=5, minimum) to receive escalating doses of EPZ-6438. EPZ-6438 was formulated once weekly in 0.5% sodium carboxymethylcellulose and 0.1% tween-80 at concentrations needed for target doses in a volume of 0.2 ml. All formulations were stored at 4° C., brought to room temperature, and mixed by vortex before oral administration by gavage twice daily from Day 1 until the end of the study. Tumor volumes were calculated from perpendicular length and width caliper measurements using the formula:
(§4) Tumor Volume (mm^3)=0.5×(Length×Width^2).
(§5) A mixed modeling approach was used to analyze the repeated measurement of tumor volumes from the same animals over time. Cubic regression splines were used to fit a nonlinear profile to the time courses of log 2-transformed tumor volumes in each group. Fitting was done via a linear mixed-effects model, using the package “nlme” (version 3.1-97) in R version 2.13.0 (R Development Core Team 2008; R Foundation for Statistical Computing; Vienna, Austria). Fitted tumor volumes were plotted in the natural scale in Prism (version 5.0b for Mac) (GraphPad Software; La Jolla, Calif.).

The subject of assay [10] is TOV-21G tumor xenografts. Nature of the assay: Xenograft study, tumor growth. The class given is in vivo, mouse. The following applies: SCID mice, 450 mg/kg BID, 28 days. Here is the method: as §3, §4, §5
The subject of assay [11] is H3K27 methylation in NCI-H522 tumor xenograft tissue. Nature of the assay: Pharmacodynamic Western blot of xenograft tumor tissue. In kind it is in vivo, mouse. The following applies: strongest at 450 mg/kg BID; day 7, three hours after dosing. Here is the method: (§6) Plasma and tumor samples for pharmacodynamic analysis were collected from tumor-bearing mice on day 7, 3 hours following the last dose. Tumor tissue was lysed in RIPA buffer containing 1M NaCl and homogenized for 3 minutes at speed 10 (NEXTADVANCE, BULLET BLENDER® 24) prior to Western blotting.

For assay [12], the system named is H3K27me3 in TOV-21G tumor xenograft tissue. Described as above. The class given is in vivo, mouse. The following applies: day 7, three hours following twice-daily oral administration. As to the method: as §6
The test system of assay [13] is H3K27me3 at the SMARCA2 promoter. Briefly: H3K27me3 ChIP-PCR. The class given is cell-based, human. The conditions noted are these: TOV-112D cells. Here is the method: For each sample, 10×10^6 cells were harvested and washed with 1×PBS. Cells were fixed and sheared following the instructions provided with the truChlP Chromatin Shearing Reagent Kit (Covaris). Cells were fixed for 5 minutes with 1% formaldehyde and then quenched with quenching buffer for 5 minutes. Cells were then washed with cold 2×PBS. Nuclei were isolated and sheared using the Covaris AFA Focused-ultrasonicator for 20 minutes. The IP was conducted with 500 μg sheared chromatin and 10 μg anti-H3K27me3 (Active Motif cat #39155) or anti-Rabbit IgG. The Magna ChIP kit (Millipore) was used for IP. For each IP, a 50 μl mixture of Dynabeads protein A and G (50/50 mix) was incubated with primary antibody for 3 hours. The beads were added to 500 μg of sheared chromatin. The beads and antibodies were incubated overnight at 4° C. The beads were then washed with the following wash buffers: low salt, high salt, LiCI wash buffer, and TE Buffer. DNA was extracted from the beads in ChIP elution buffer with protease K at 64° C. with shaking overnight. DNA was then purified using the QIAquick PCR Purification Kit (Qiagen). DNA was eluted with 30 μl of water. 1.0 μl of eluted DNA was used for each SYBR green PCR reaction. SMARCA2 was amplified using the following primers: forward, […] (SEQ ID NO: 27); reverse, […] (SEQ ID NO: 28). […]

Assay [14] has as its system ARID1A-mutant cell lines. Nature of the assay: 3D Matrigel culture, acini formation. In kind it is cell-based, human. As to the method:
Wells of a 24 well plated were coated with 70 μl Matrigel Matrix (Corning) and allowed to congeal at room temperature. Cells (n=5,000) were plated on top of the basement matrix in 400 μl RPMI+10% FBS containing 2% Matrigel matrix. Cells were treated with the respective compounds in 400 μl media to replenish the old media. Colonies were imaged on a Zeiss Axio Observer A1 microscope 10 days after the start of experiment.

Assay [15] has as its system cathepsin B (CTSB). Briefly: CTSB transcript and protein expression. The class given is cell-based, human. The conditions noted are these: TOV-112D control cells, 5 μM.
Procedure: For studies evaluating EPZ-6438 effects, cells were treated with various doses of EPZ-6438 for 6 days. On day 3, fresh medium containing EPZ-6438 was introduced. Cell pellets were lysed in RIPA buffer containing 1M NaCl and homogenized for 3 minutes at speed 10 (NextAdvance, Bullet Blender® 24). 12 μg or 18 μg protein was dissolved in 4-12% bis-Tris or 3-8% Tris-acetate gel and transferred to polyvinylidend difluoride (PVDF) membranes. IRDYE® secondary antibodies were used for detection by an Odyssey Imager (LI-COR). Total RNA was extracted using Qiagen RNeasy Plus Mini kit, according to the manufacturers protocol. Quality control of samples was performed to determine RNA quantity and quality prior to their processing by RNA-seq. The concentration of RNA samples was determined using NanoDrop 8000 (Thermo Scientific) and the integrity of RNA was determined by Fragment Analyzer (Advanced Analytical Technologies). 0.5 μg of total RNA was used as an input material for library preparation using TruSeq RNA Sample Preparation Kit v2 (Illumina). Size of the libraries was confirmed using 2200 TapeStation and High Sensitivity D1K screen tape (Agilent Technologies), and their concentration was determined by qPCR based method using Library quantification kit (KAPA). The libraries were multiplexed and sequenced on Illumina HiSeq2500 (Illumina) to generate 30M of single end 50 base pair reads.
Assay [16] has as its system SMARCA4-mutant cancer cell lines. Briefly: Clonogenic assay (colony formation).
Assay [17] has as its system mono-, di-, and tri-methylated H3K27. Nature of the assay: Western blot of H3K27 methylation in cells.
The test system of assay [18] is SMARCA2. Briefly: SMARCA2 expression (Taqman quantitative RT-PCR, Western blot). The following applies: for induction of SMARCA2 transcript and protein: 6 or 10 days. On the technique in general: Real-time PCR tracks product formation cycle by cycle.
Where [19] appears, read: OVTOKO and OVISE ARID1A-mutant cell lines.
Where [20] appears, read: COV434, SNU-484 and G401 cells expressing shBRM.
Where [21] appears, read: SMARCA4-mutant cells resistant to EPZ-6438 (H1299, A549).
[22] abbreviates: SMARCA4-mutant cells sensitive to EPZ-6438 (SNU-484, TOV112D), dose-dependent.

Entries after “also recorded” stand apart in the source; their conditions may differ.

In the case of `CCN(c1cc(-c2ccc(CN3CCOCC3)cc2)cc(C(=O)NCc2c(C)cc(C)[nH]c2=O)c1C)C1CCOCC1` [EPZ-6438], the “inhibition in colony formation” value in [1] (panel of ARID1A-mutant cancer cell lines) was “inhibition in colony formation was observed in a subset”; in assay [2], “inhibition in colony formation”; in [16] (panel of 11 SMARCA4-mutant cancer cell lines, increasing doses), “dose-dependent inhibition in colony formation was observed in a subset”. The “activity on colony formation” value in assay [3] is given as “No activity; also recorded: No effect”. In addition, in assay [4], the “morphologic changes (cell flattening and enlargement)” value is “pronounced morphologic changes”. Further, the “apoptosis (caspase 3/7)” value in [5] is “subpopulations of apoptotic cells”. In addition, in assay [6] (TOV-112D cells expressing shBRM, 6 days), the “dose-dependent induction of apoptosis in cells expressing shBRM” value is listed as “prevented”. For the same compound, the “activation of caspase 3/7 in cells expressing shCTSB” value in [6] (TOV-112D cells expressing shRNAs targeting CTSB) is “significantly suppressed”. In [6] (TOV-112D cells, seven days of treatment), the “apoptotic response (caspase 3/7)” value is listed as “strong apoptotic response”. Further, the “kinetics of senescence induction (homogenous β-galactosidase expression)” value in assay [7] (COV434 model) is on record as “homogenous expression of β-galactosidase by seven days”; in [7] (NCI-HS22 cells), “not observed until a few weeks”. Further, in [7] (some SMARCA4-mutant EPZ-6438-sensitive models, most notable in COV434 and NCI-HS22), the “senescence-associated β-galactosidase expression” value was “Increases in senescence-associated β-galactosidase expression”. For the same compound, the “DNA synthesis / proliferative state by Edu incorporation” value in assay [8] was “non-proliferative state; also recorded: inhibition of DNA synthesis”. Further, in [9] (450 mg/kg BID), the “tumor growth inhibition (TGI)” value was determined as 72%. The “inhibition of tumor growth” value in assay [9] (twice daily (BID), 30, 100, 450 mg/kg, 23 days) was “dose-dependent inhibition of tumor growth”. Further, the tumor growth inhibition entry in assay [10] is recorded as “tumor growth inhibition”. In assay [11], the “H3K27me3 and H3K27me2 in tumor tissue” value is “reduction of H3K27me3 and H3K27me2”. For the same compound, the “H3K27me3 in tumor tissue” value in assay [12] is “target inhibition”. In addition, in [13], the “association of H3K27me3 with the SMARCA2 gene promoter” value is on record as “significant decrease”. Besides, the acini formation entry in assay [14] (A2780 cells (positive control)) is “inhibition of both clonogenic growth and acini formation”; in [14] (setting [19]), “lack of activity”. Moreover, in [15], the “CTSB transcript and protein” value is on record as “strongly upregulated”. Moreover, in assay [16] (setting [20]), the “colony formation in cells expressing SMARCA2 shRNA (shBRM)” value is recorded as “did not affect the ability of EPZ-6438 to inhibit colony formation”. Moreover, the “dose-dependent inhibition of colony formation in cells expressing shBRM” value in [16] (TOV-112D cells expressing shBRM) is “prevented the dose-dependent inhibition of colony formation”. Further, the “inhibition of H3K27 methylation in cells expressing shBRM” value in assay [17] (setting [20]) is reported as “no effect on the ability of EPZ-6438 to inhibit H3K27 methylation”. In addition, the “inhibition of mono-, di-, and tri-methylated H3K27” value in assay [17] (EPZ-6438-sensitive and EPZ-6438-resistant cell lines, dose-dependent, 6-day treatment) is “inhibited mono-, di-, and tri-methylated H3K27 to a similar extent”. The “induction of SMARCA2 transcript and protein” value is “but not EPZ-6438-resistant” in assay [18] (EPZ-6438-resistant SMARCA4-mutant cell lines, 5 μM) and “strong induction” in [18] (EPZ-6438-sensitive SMARCA4-mutant cell lines, 5 μM). The “induction of SMARCA2” value in assay [18] (EPZ-6438-sensitive ARID1A-mutant A2780 cells, 5 μM, 6 days) was “induction of SMARCA2”. For the same compound, in assay [18] (SMARCB1-mutant MRT line G401, 6 days, EPZ-6438 5 μM, 5-Aza 1 μM), the SMARCA2 levels result was “induction in SMARCA2 levels”.

`Nc1ncn([C@H]2C[C@H](O)[C@@H](CO)O2)c(=O)n1` [5-aza-2′-deoxycytidine]: the “SMARCA2 mRNA levels” value in assay [18] (SMARCA4-mutant cells with repressed SMARCA2) was “did not impact”.

`CCS(=O)(=O)N1CCC([C@@H](C)n2c(C)c(C(=O)NCc3c(OC)cc(C)[nH]c3=O)c3ccccc32)CC1` [CPI-169]: in [1] (ARID1A-mutant versus ARID1A-WT ovarian cell lines), the “differential sensitivity of colony formation” value is “phenocopied”. Further, the acini formation entry in [14] (A2780 cells (positive control)) was “inhibition of both clonogenic growth and acini formation”; in [14] (setting [19]) it was “lack of activity”. Besides, the values for the colony formation result in assay [16] (setting [21]) and in [16] (setting [22]) were “no effect” and “inhibited colony formation”, respectively.

As to `CC[C@H](C)n1cc(C)c2c(C(=O)NCc3c(C)cc(C)[nH]c3=O)cc(-c3ccc(N4CCNCC4)nc3)cc21` [GSK-126], the values for the colony formation result in assay [16] (setting [21]) and in [16] (setting [22]) were “no effect” and “inhibited colony formation”, respectively.
